From PMC7913412, “Identification and characterization of heteroclitic peptides in TCR-binding positions with improved HLA-binding efficacy” (Journal of Translational Medicine, 2021)

Molecular target: H2-Db molecule (Mus musculus, UniProt P01899)
Assay: Peptide binding affinity assay on TAP-deficient RMA-S cells (anti-H-2Db staining, flow cytometry)
Assay type: cell-based
Conditions: 3 x 10^5 cells/well, peptide 1, 5, 10 μM, 4 h at 37 °C, anti-H-2Db antibody, flow cytometry MFI, triplicate
Experimental: Peptide binding affinity to H2-Db molecule was performed for each selected peptide. Tap-deficient mouse derived H-2Db RMA-S cells were cultured for 24 h at 26 °C to accumulate empty MHC-I molecules on the cell surface. Cells were washed in serum-free medium and incubated at 3 × 10^5 cells/well with varying concentrations of peptides (1 μM, 5 μM, 10 μM) for 4 h at 37 °C with 5% CO2. Cells were harvested, washed with phosphate-buffered saline (1 × PBS; Gibco Life Technologies), stained with anti-H-2Db fluorescent monoclonal antibody (cat. 1157535; SONY) and analyzed by flow cytometry. All the experiments were performed in triplicate.
In order to experimentally confirm the binding of heteroclitic peptides to H-2 Db molecule, the H-2 Db positive RMA-S cell line was loaded with different concentrations (1 μM, 5 μM, 10 μM) of selected heteroclitic peptides modified in p4 with a predicted affinity higher than the wt peptide.

H2-Db molecule, sequence (P01899 whole entry, looked up): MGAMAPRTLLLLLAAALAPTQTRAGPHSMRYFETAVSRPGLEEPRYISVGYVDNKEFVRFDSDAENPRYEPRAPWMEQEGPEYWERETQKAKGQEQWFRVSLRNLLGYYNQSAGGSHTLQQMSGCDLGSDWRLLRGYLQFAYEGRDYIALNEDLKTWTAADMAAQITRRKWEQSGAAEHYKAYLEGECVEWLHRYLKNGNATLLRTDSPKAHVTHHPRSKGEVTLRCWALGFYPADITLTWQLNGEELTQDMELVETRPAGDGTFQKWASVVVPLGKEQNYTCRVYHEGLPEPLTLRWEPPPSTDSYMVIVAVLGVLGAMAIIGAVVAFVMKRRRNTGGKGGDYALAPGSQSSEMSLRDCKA

| Sequence | Binding to H-2Db compared with the wt peptide (in words) |
| --- | --- |
| SVYCFFVWL [SVYCFFVWL (MUT41), heteroclitic Trp2 peptide, Cys at p4] | binding lower than the wt |
| RAHWNIVTF [RAHWNIVTF (MUT418), heteroclitic HPV-E7 peptide, Trp at p4] | strongest binding |
| SVYEFFVWL [SVYEFFVWL (MUT42), heteroclitic Trp2 peptide, Glu at p4] | binding lower than the wt |
| SVYWFFVWL [SVYWFFVWL (MUT417), heteroclitic Trp2 peptide, Trp at p4] | binding lower than the wt |
